# Measurements taken from PubChem BioAssay AID1259407 (Chemical Carcinogenesis Research Information System (CCRIS), 2018).
# The source made the active and inactive calls. The rule behind the calls is not given here.
# Tested on: CCRIS mutagenicity, Ames/micronucleus/aberration tests
# Experiment: CCRIS mutagenicity studies
# [1] = Test System: AMES SALMONELLA TYPHIMURIUM, Strain/Indicator: TA98, Metabolic Activation: NONE, Method: STANDARD PLATE
# [2] = Test System: AMES SALMONELLA TYPHIMURIUM, Strain/Indicator: TA100, Metabolic Activation: NONE, Method: STANDARD PLATE
# [3] = Test System: AMES SALMONELLA TYPHIMURIUM, Strain/Indicator: TA98, Metabolic Activation: NONE, Method: PREINCUBATION
# [4] = Test System: AMES SALMONELLA TYPHIMURIUM, Strain/Indicator: TA100, Metabolic Activation: NONE, Method: PREINCUBATION
smiles,measurement,setting,value
O=Cc1ccc(CO)o1,mutagenic call,"End Point: In vivo micronucleus, Test System: Peripheral blood normochromatic erythrocytes, Species: Mouse, Strain/Sex: B6C3F1/Female, Route: Oral",inactive; negative
same,mutagenic call,"End Point: In vivo micronucleus, Test System: Peripheral blood normochromatic erythrocytes, Species: Mouse, Strain/Sex: B6C3F1/Male, Route: Oral",inactive; negative
same,mutagenic call,[1],inactive; negative
same,mutagenic call,"Test System: AMES SALMONELLA TYPHIMURIUM, Strain/Indicator: TA98, Metabolic Activation: S-9, Method: STANDARD PLATE",active; positive
same,mutagenic call,[2],inactive; negative
same,mutagenic call,"Test System: AMES SALMONELLA TYPHIMURIUM, Strain/Indicator: TA100, Metabolic Activation: S-9, Method: STANDARD PLATE",active; positive
same,mutagenic call,"Test System: AMES SALMONELLA TYPHIMURIUM, Strain/Indicator: TA104, Metabolic Activation: NONE, Method: PREINCUBATION",inactive; negative
same,mutagenic call,"Test System: Ames Salmonella typhimurium, Strain/Indicator: TA97, Metabolic Activation: Hamster, Liver, S-9, Aroclor 1254 (10 and 30%), Method: Preincubation",inactive; negative
same,mutagenic call,"Test System: Ames Salmonella typhimurium, Strain/Indicator: TA97, Metabolic Activation: None, Method: Preincubation",inactive; negative
same,mutagenic call,"Test System: Ames Salmonella typhimurium, Strain/Indicator: TA97, Metabolic Activation: Rat, Liver, S-9, Aroclor 1254 (10 and 30%), Method: Preincubation",inactive; negative
same,mutagenic call,"Test System: Ames Salmonella typhimurium, Strain/Indicator: TA98, Metabolic Activation: Hamster, Liver, S-9, Aroclor 1254 (10 and 30%), Method: Preincubation",inactive; negative
same,mutagenic call,"Test System: Ames Salmonella typhimurium, Strain/Indicator: TA98, Metabolic Activation: None, Method: Preincubation",inactive; negative
same,mutagenic call,"Test System: Ames Salmonella typhimurium, Strain/Indicator: TA98, Metabolic Activation: Rat, Liver, S-9, Aroclor 1254 (10 and 30%), Method: Preincubation",inactive; negative
same,mutagenic call,"Test System: Ames Salmonella typhimurium, Strain/Indicator: TA98, Metabolic Activation: Rat, Liver, S-9, Aroclor 1254,10%, Method: Preincubation",inactive; negative
same,mutagenic call,"Test System: Ames Salmonella typhimurium, Strain/Indicator: TA100, Metabolic Activation: Hamster, Liver, S-9, Aroclor 1254 (10 and 30%), Method: Preincubation",inactive; negative
same,mutagenic call,"Test System: Ames Salmonella typhimurium, Strain/Indicator: TA100, Metabolic Activation: Rat, Liver, S-9, Aroclor 1254 (10 and 30%), Method: Preincubation",inactive; negative
same,mutagenic call,"Test System: Ames Salmonella typhimurium, Strain/Indicator: TA100, Metabolic Activation: Rat, Liver, S-9, Aroclor 1254,10%, Method: Preincubation",inactive; negative
same,mutagenic call,"Test System: Ames Salmonella typhimurium, Strain/Indicator: TA102, Metabolic Activation: Hamster, Liver, S-9, Aroclor 1254 (10 and 30%), Method: Preincubation",inactive; negative
same,mutagenic call,"Test System: Ames Salmonella typhimurium, Strain/Indicator: TA102, Metabolic Activation: None, Method: Preincubation",inactive; negative
same,mutagenic call,"Test System: Ames Salmonella typhimurium, Strain/Indicator: TA102, Metabolic Activation: Rat, Liver, S-9, Aroclor 1254 (10 and 30%), Method: Preincubation",inactive; negative
same,mutagenic call,"Test System: Ames Salmonella typhimurium, Strain/Indicator: TA1535, Metabolic Activation: None, Method: Preincubation",inactive; negative
same,mutagenic call,"Test System: CHINESE HAMSTER V-79, Strain/Indicator: V-79 (HPRT)/6-THIOGUANINE, Metabolic Activation: NONE, Method: STANDARD PLATE",active; positive
same,mutagenic call,"Test System: E. coli, Strain/Indicator: WP2 uvrA/pKM101, Metabolic Activation: None, Method: Preincubation",inactive; negative
same,mutagenic call,"Test System: E. coli, Strain/Indicator: WP2 uvrA/pKM101, Metabolic Activation: Rat, Liver, S-9, Aroclor 1254 (10%), Method: Preincubation",inactive; negative
Nc1nc2c(ncn2COCCO)c(=O)[nH]1,mutagenic call,"End Point: IN VITRO CHROMOSOMAL ABERRATIONS, Test System: CHO CELLS (CHO-HSVTK), Metabolic Activation: NONE",active; positive (structural changes); concentration chosen also induced apoptosis
O=S(=O)(O)c1cc(S(=O)(=O)O)c2c(N=Nc3ccc(S(=O)(=O)O)c4ccccc34)c(O)ccc2c1,mutagenic call,"End Point: IN VIVO MICRONUCLEUS, Test System: BONE MARROW POLYCHROMATIC ERYTHROCYTES, Species: MOUSE, Strain/Sex: DDY/MALE, Route: IP",inactive; negative
same,mutagenic call,[3],inactive; negative
same,mutagenic call,"Test System: AMES SALMONELLA TYPHIMURIUM, Strain/Indicator: TA98, Metabolic Activation: S-9, Method: PREINCUBATION",inactive; negative
same,mutagenic call,[4],inactive; negative
same,mutagenic call,"Test System: AMES SALMONELLA TYPHIMURIUM, Strain/Indicator: TA100, Metabolic Activation: S-9, Method: PREINCUBATION",inactive; negative
same,mutagenic call,"Test System: Mouse lymphoma, Strain/Indicator: L5178Y (tk+/tk-), Metabolic Activation: None, Method: Suspension/plate",inactive; negative
same,mutagenic call,"Test System: Mouse lymphoma, Strain/Indicator: L5178Y (tk+/tk-), Metabolic Activation: Rat, Liver, S-9, Aroclor 1254, Method: Suspension/plate",inactive; inconclusive (previous evaluation negative)
same,mutagenic call,"Test System: UDS RODENT HEPATOCYTES, Strain/Indicator: THY INCORP, Metabolic Activation: NONE, Method: AUTORADIOGRAPHY",inactive; negative
C[C@@]12CC[C@@H]3[C@@](CC[C@H]4[C@@]3(C)CCC[C@@]4(C)C(=O)O)(CC1=O)C2,mutagenic call,"Test System: AMES SALMONELLA TYPHIMURIUM, Strain/Indicator: TM677, Metabolic Activation: RAT, LIVER, S-9, AROCLOR 1254, Method: PREINCUBATION",inactive; negative
C1=Cc2c3ccccc3cc3cc4ccccc4c1c23,mutagenic call,[1],active; positive
same,mutagenic call,"Test System: AMES SALMONELLA TYPHIMURIUM, Strain/Indicator: TA98, Metabolic Activation: RAT, LIVER, S-9, AROCLOR 1254 (0.127 OR 1.27 MG S-9 PROTEIN), Method: STANDARD PLATE",active; positive
c1cc2cccc3c4cccc5cccc(c(c1)c23)c54,mutagenic call,"Test System: AMES SALMONELLA TYPHIMURIUM, Strain/Indicator: TA97, Metabolic Activation: NONE, Method: STANDARD PLATE",inactive; negative
same,mutagenic call,"Test System: AMES SALMONELLA TYPHIMURIUM, Strain/Indicator: TA97, Metabolic Activation: RAT, LIVER, S-9, PCB, Method: STANDARD PLATE",active; positive
same,mutagenic call,"Test System: AMES SALMONELLA TYPHIMURIUM, Strain/Indicator: TA97A, Metabolic Activation: RAT, LIVER, S-9, AROCLOR 1254, Method: STANDARD PLATE",active; positive
same,mutagenic call,[1],inactive; negative
same,mutagenic call,"Test System: AMES SALMONELLA TYPHIMURIUM, Strain/Indicator: TA98, Metabolic Activation: RAT, LIVER, S-9, AROCLOR 1254 (20 OR 50 µL S-9), Method: STANDARD PLATE",active; positive
same,mutagenic call,"Test System: AMES SALMONELLA TYPHIMURIUM, Strain/Indicator: TA98, Metabolic Activation: RAT, LIVER, S-9, PCB, Method: STANDARD PLATE",active; positive
same,mutagenic call,[2],inactive; negative
same,mutagenic call,"Test System: AMES SALMONELLA TYPHIMURIUM, Strain/Indicator: TA100, Metabolic Activation: RAT, LIVER, S-9, AROCLOR 1254 (50 µL S-9), Method: STANDARD PLATE",active; positive
same,mutagenic call,"Test System: AMES SALMONELLA TYPHIMURIUM, Strain/Indicator: TA100, Metabolic Activation: RAT, LIVER, S-9, AROCLOR 1254, Method: STANDARD PLATE",active; positive
same,mutagenic call,"Test System: AMES SALMONELLA TYPHIMURIUM, Strain/Indicator: TA100, Metabolic Activation: RAT, LIVER, S-9, PCB, Method: STANDARD PLATE",active; positive
same,mutagenic call,"Test System: AMES SALMONELLA TYPHIMURIUM, Strain/Indicator: TA1535, Metabolic Activation: RAT, LIVER, S-9, AROCLOR 1254, Method: STANDARD PLATE",active; positive
same,mutagenic call,"Test System: AMES SALMONELLA TYPHIMURIUM, Strain/Indicator: TA1537, Metabolic Activation: RAT, LIVER, S-9, AROCLOR 1254, Method: STANDARD PLATE",active; positive
Cc1nc2ccc(N(C)C)c(C)c2nc1C,mutagenic call,[3],inactive; negative
same,mutagenic call,"Test System: AMES SALMONELLA TYPHIMURIUM, Strain/Indicator: TA98, Metabolic Activation: RAT, LIVER, S-9, PCB, Method: PREINCUBATION",active; positive
same,mutagenic call,[4],inactive; negative
same,mutagenic call,"Test System: AMES SALMONELLA TYPHIMURIUM, Strain/Indicator: TA100, Metabolic Activation: RAT, LIVER, S-9, PCB, Method: PREINCUBATION",active; positive
